What all share (type): biochemical
For experiment [1], the target named is T1, recombinant CYP3A4+b5 enzyme (Supersomes®) (Homo sapiens, UniProt P08684).
T1 construct: purchased BD Biosciences (Woburn, Mass.)
The experiment is described as follows: Kiapp against recombinant CYP3A4 enzyme (Supersomes), BFC substrate. Conditions: recombinant CYP3A4+b5 (BD Biosciences), 5 uM BFC, 200 uM NADPH, pre-incubation at least 30 minutes, pH 7.0, room temperature. Here is the method: 1. Determination of Compound Kiapp
A determination of the Kiapp of the compounds of the invention against recombinant CYP3A4 enzyme was performed as follows. The assay was performed in a 100 mM sodium phosphate buffer pH 7.0, 5 mM TCEP and containing 2% dimethylformamide (final concentration) upon addition of substrate and inhibitor. A typical reaction for the determination of Kiapp values was carried at room temperature in a solid black Costar u-bottom 96-well polypropylene plate. In each well, recombinant CYP3A4 enzyme (5.5 nM or 8 nM, final concentration depending on the commercial source of the enzyme) was pre-incubated in the presence of the inhibitor for at least 30 minutes in the assay buffer. When pre-incubation was completed (˜30 min), the reaction was initiated by adding NADPH (200 uM, final concentration), and 7-benzyloxy-4-(trifluoromethyl)-coumarin (BFC) (5 uM, final concentration). The oxidation of the coumarin substrate was recorded by a 96-well plate reader POLARstar (BMG LABTECH, Offenburg, Germany).
The initial reaction velocities were measured during the first 5 min of the reaction when the release of the fluorescent product is linear with time, in the absence and in the presence of various concentrations of inhibitors. For non-partial & partial inhibitors, the Kiapp values were determined by using the equation for tight-binding inhibitor developed by Morrison, J F (Morrison J F. Biochim Biophys Acta. 1969, 185: 269-86) and by Szedlaseck S E et al. (Szedlascek, S. E., Ostafe, V., Serban, M., and Vlad, M. O. Biochem. J. 1988, 254:311-312), respectively.
The fluorescent substrate BFC was purchased from Sigma (St Louis, Mo.). Two commercial sources of recombinant enzymes were used in this study: recombinant CYP3A4-b5 enzyme (Baculosomes®) was purchased from Invitrogen (Carlsbad, Calif.) and the recombinant CYP3A4+b5 enzyme (Supersomes®) was purchased from BD Biosciences (Woburn, Mass.).

Experiment [2] concerns the target T2, recombinant CYP3A4-b5 enzyme (Baculosomes®) (Homo sapiens, UniProt P08684).
T2 construct: purchased Invitrogen (Carlsbad, Calif.)
The experiment is described as follows: Kiapp against recombinant CYP3A4 enzyme (Baculosomes), BFC substrate. Conditions: recombinant CYP3A4-b5 (Invitrogen), 5 uM BFC, 200 uM NADPH, pre-incubation at least 30 minutes, pH 7.0, room temperature. In outline:
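Recombinant CYP3A4-b5 Baculosomes were run in 100 mM sodium phosphate pH 7.0 with 5 mM TCEP and 2% DMF at room temperature, with ~30 min pre-incubation. The reaction was started with NADPH (200 uM) and BFC (5 uM), both final. Kiapp came from initial fluorescence velocities over the first 5 min across inhibitor concentrations.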

Experiment [3] deals with T3, CYP3A4 (Homo sapiens, UniProt P08684).
T3 construct: 0.1 mg/mL human liver microsomes; from tissue; host or cells: human liver microsomes
The experiment is described as follows: IC50 against CYP3A4 by inhibition of midazolam metabolism in human liver microsomes. Conditions: 0.1 mg/mL human liver microsomes, 2 μM midazolam, 1 mM NADPH, 1-hydroxymidazolam production, eight minutes; read-out: IC50, μM (HLM, midazolam). Summed up:
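Human liver microsomes (0.1 mg/mL) incubated 8 min with 2 μM midazolam and 1 mM NADPH in 100 mM potassium phosphate, pH 7.4. 1-Hydroxymidazolam quantified by LC-MS/MS (MRM) as peak area ratio to internal standard against a metabolite standard curve.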
On the technique in general: Liver microsomes are vesicles of endoplasmic reticulum, rich in cytochrome P450 enzymes.

For experiment [4], the target named is T3, CYP3A4. The experiment is described as follows: IC50 against CYP3A4 by inhibition of testosterone metabolism in human liver microsomes. Conditions: 0.1 mg/mL human liver microsomes, 25 μM testosterone, 1 mM NADPH, 6-β-OH-testosterone production, eight minutes; read-out: IC50, μM (HLM, testosterone). In outline: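 Testosterone used as substrate, incubated for eight minutes. 6-β-OH-testosterone formation quantified by LC-MS/MS (MRM) as peak area ratio to internal standard against a metabolite standard curve. IC50 derived from inhibition of this metabolism.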

Usually IC50 stands for the concentration needed to halve the response being measured.

Some results are limits rather than exact numbers.

T3 sequence (P08684 whole entry): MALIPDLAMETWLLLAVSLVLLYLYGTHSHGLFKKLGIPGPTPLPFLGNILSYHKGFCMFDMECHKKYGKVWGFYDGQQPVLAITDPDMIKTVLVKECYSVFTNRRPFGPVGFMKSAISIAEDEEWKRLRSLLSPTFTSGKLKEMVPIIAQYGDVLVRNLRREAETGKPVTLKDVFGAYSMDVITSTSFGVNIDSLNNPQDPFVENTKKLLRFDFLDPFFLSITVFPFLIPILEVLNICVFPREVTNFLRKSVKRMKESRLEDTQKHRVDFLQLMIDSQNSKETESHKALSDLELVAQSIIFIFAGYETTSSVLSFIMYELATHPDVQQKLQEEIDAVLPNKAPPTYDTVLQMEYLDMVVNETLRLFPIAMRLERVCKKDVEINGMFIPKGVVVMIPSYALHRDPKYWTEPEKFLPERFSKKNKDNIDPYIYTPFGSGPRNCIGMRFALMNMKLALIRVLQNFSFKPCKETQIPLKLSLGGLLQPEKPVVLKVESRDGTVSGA
T2 sequence (P08684 whole entry): as above
T1 sequence (P08684 2-503 limits assumed): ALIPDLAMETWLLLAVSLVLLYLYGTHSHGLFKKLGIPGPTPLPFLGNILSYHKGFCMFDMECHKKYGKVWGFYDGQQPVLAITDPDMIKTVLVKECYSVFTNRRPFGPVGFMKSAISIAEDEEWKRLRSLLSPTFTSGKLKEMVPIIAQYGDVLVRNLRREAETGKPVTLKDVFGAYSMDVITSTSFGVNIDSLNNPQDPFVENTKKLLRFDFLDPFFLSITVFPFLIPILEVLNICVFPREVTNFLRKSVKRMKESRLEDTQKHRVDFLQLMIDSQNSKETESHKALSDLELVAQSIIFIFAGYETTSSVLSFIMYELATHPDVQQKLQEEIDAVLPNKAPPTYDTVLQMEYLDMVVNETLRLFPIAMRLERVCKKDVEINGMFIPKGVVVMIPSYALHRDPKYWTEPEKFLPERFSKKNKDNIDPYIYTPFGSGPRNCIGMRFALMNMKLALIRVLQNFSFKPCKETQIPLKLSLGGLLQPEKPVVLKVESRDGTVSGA

Turning to `CS(=O)(=O)NC1CCN(C(=O)Cn2nc(-c3ccncc3)cc2Cc2ccc(F)cc2)CC1` [Example 19, N-(1-{2-[5-(4-fluorobenzyl)-3-pyridin-4-yl-1H-pyrazol-1-yl]acetyl}piperidin-4-yl)methanesulfonamide], the Ki in experiment [1] turned out to be 0.0057 µM; in experiment [2], 0.128 µM. Moreover, the IC50 stood at 0.0138 µM on CYP3A4 [3] and 0.033 µM on CYP3A4 [4].

For the compound `CC(C)(CN1CCOCC1)NC(=O)Cn1nc(-c2c[nH]nn2)cc1Cc1ccc(F)cc1` [Example 50, N-(1,1-dimethyl-2-morpholin-4-ylethyl)-2-[5-(4-fluorobenzyl)-3-(1H-1,2,3-triazol-4-yl)-1H-pyrazol-1-yl]acetamide], the figures for the Ki in experiment [1] and in experiment [2] were 0.389 µM and 0.729 µM, respectively. Besides, the IC50 on CYP3A4 [3] worked out at 0.132 µM; on CYP3A4 [4] it was 0.168 µM.

In the case of `CC(=O)NC(C)(C)CNC(=O)Cn1nc(-c2ccncc2)cc1Cc1ccc(F)cc1` [Example 71, N-[2-(acetylamino)-2-methylpropyl]-2-[5-(4-fluorobenzyl)-3-pyridin-4-yl-1H-pyrazol-1-yl]acetamide], the Ki is 0.0237 µM in experiment [1] and 0.0599 µM in experiment [2]. Besides, the IC50 on CYP3A4 [3] came to 0.034 µM; at CYP3A4 [4], 0.035 µM.

As to `CN(C)[C@H]1CCN(C(=O)Cn2nc(-c3ccncc3)cc2Cc2ccc(F)cc2)C1` [Example 73, (3S)-1-{[5-(4-fluorobenzyl)-3-pyridin-4-yl-1H-pyrazol-1-yl]acetyl}-N,N-dimethylpyrrolidin-3-amine], the Ki was 0.0339 µM in experiment [1] and 0.211 µM in experiment [2]. Further, the IC50 on CYP3A4 [3] is 0.018 µM; on CYP3A4 [4], 0.0435 µM.

Take `O=C(Cn1nc(-c2ccncc2)cc1Cc1ccc(F)cc1)NC1CCS(=O)(=O)C1` (stereo not drawn) [Example 93, N-(1,1-dioxidotetrahydro-3-thienyl)-2-[5-(4-fluorobenzyl)-3-pyridin-4-yl-1H-pyrazol-1-yl]acetamide]: the Ki was 0.0039 µM in experiment [1] and 0.0134 µM in experiment [2]. In addition, the IC50 at CYP3A4 [3] came out at 0.014 µM; at CYP3A4 [4], 0.007 µM.

As for `O=C(Cn1nc(-c2ccncc2)cc1Cc1ccc(F)cc1)N[C@H]1CC[C@@H](O)CC1` [Example 95, 2-[5-(4-fluorobenzyl)-3-pyridin-4-yl-1H-pyrazol-1-yl]-N-(cis-4-hydroxycyclohexyl)-acetamide], the values for the Ki in experiment [1] and in experiment [2] were 0.0059 µM and 0.0871 µM, respectively. Moreover, the IC50 was less than 0.012 µM at CYP3A4 [3] and less than 0.021 µM on CYP3A4 [4].

`CC(=O)N(C)C1CCN(C(=O)Cn2nc(-c3ccncc3)cc2Cc2ccc(F)cc2)C1` (stereo not drawn) [Example 99, N-(1-{[5-(4-fluorobenzyl)-3-pyridin-4-yl-1H-pyrazol-1-yl]acetyl}pyrrolidin-3-yl)-N-methylacetamide]: the Ki in experiment [1] amounted to 0.0178 µM; in experiment [2], 0.248 µM. Besides, the IC50 turned out to be 0.032 µM on CYP3A4 [3] and 0.064 µM at CYP3A4 [4].

As for `CC(=O)N[C@@H]1CCN(C(=O)Cn2nc(-c3ccncc3)cc2Cc2ccc(F)cc2)C1` [Example 100, N-[(3R)-1-{2-[5-(4-fluorobenzyl)-3-pyridin-4-yl-1H-pyrazol-1-yl]acetyl}pyrrolidin-3-yl]acetamide], the Ki is 0.0225 µM in experiment [1] and 0.298 µM in experiment [2]. The IC50 on CYP3A4 [3] came out at 0.044 µM; on CYP3A4 [4], 0.0845 µM.

`O=C(Cn1nc(-c2ccncc2)cc1Cc1ccc(F)cc1)N1CCC(N2CCOC2=O)CC1` [Example 118, 3-(1-{[5-(4-fluorobenzyl)-3-pyridin-4-yl-1H-pyrazol-1-yl]acetyl}piperidin-4-yl)-1,3-oxazolidin-2-one]: the Ki in experiment [1] worked out at 0.0065 µM; in experiment [2] it was 0.0442 µM. For the same compound, the IC50 was found to be 0.00837 µM at CYP3A4 [3] and 0.013 µM on CYP3A4 [4].

In the case of `CS(=O)(=O)NC1CCN(C(=O)Cn2nc(-c3c[nH]cn3)cc2Cc2ccc(F)cc2)CC1` [Example 119, N-(1-{2-[5-(4-fluorobenzyl)-3-(1H-imidazol-4-yl)-1H-pyrazol-1-yl]acetyl}piperidin-4-yl)methanesulfonamide], the figures for the Ki in experiment [1] and in experiment [2] were 0.166 µM and 0.314 µM, respectively. The IC50 at CYP3A4 [3] was 0.167 µM; at CYP3A4 [4] it was more than 0.75 µM.

In the case of `O=C(Cn1nc(-c2ccncc2)cc1Cc1ccc(F)cc1)N1CCC(N2CCCS2(=O)=O)CC1` [Example 120, 4-[1-{2-[4-(1,1-dioxidoisothiazolidin-2-yl)piperidin-1-yl]-2-oxoethyl}-5-(4-fluorobenzyl)-1H-pyrazol-3-yl]pyridine], the Ki is 0.0068 µM in experiment [1] and 0.003 µM in experiment [2]. In addition, the IC50 is 0.017 µM at CYP3A4 [3] and 0.027 µM at CYP3A4 [4].

In the case of `O=C(Cn1nc(-c2ccncc2)cc1Cc1ccc(F)cc1)N1CC(N2CCOCC2)C1` [Example 121, 4-(1-{[5-(4-fluorobenzyl)-3-pyridin-4-yl-1H-pyrazol-1-yl]acetyl}azetidin-3-yl)morpholine], the Ki in experiment [1] worked out at 0.0136 µM; in experiment [2] it was 0.0978 µM. Besides, the IC50 came to 0.045 µM at CYP3A4 [3] and 0.088 µM on CYP3A4 [4].

Turning to `CC(=O)N(C)C1CCN(C(=O)Cn2nc(-c3c[nH]cn3)cc2Cc2ccc(F)cc2)CC1` [Example 122, N-(1-{[5-(4-fluorobenzyl)-3-(1H-imidazol-4-yl)-1H-pyrazol-1-yl]acetyl}piperidin-4-yl)-N-methylacetamide], the Ki in experiment [1] was determined as 0.178 µM; in experiment [2], 0.482 µM. In addition, the IC50 at CYP3A4 [3] was 0.62 µM; at CYP3A4 [4] it was more than 0.75 µM.

For `CN(C(=O)Cn1nc(-c2c[nH]cn2)cc1Cc1ccc(F)cc1)[C@H]1CC[C@H](O)CC1` [Example 123, 2-[5-(4-fluorobenzyl)-3-(1H-imidazol-4-yl)-1H-pyrazol-1-yl]-N-(trans-4-hydroxycyclohexyl)-N-methylacetamide], the figures for the Ki in experiment [1] and in experiment [2] were 0.167 µM and 0.459 µM, respectively. The IC50 came to 0.397 µM at CYP3A4 [3] and 0.554 µM at CYP3A4 [4].

On to `COC(=O)NC1CN(C(=O)Cn2nc(-c3ccncc3)cc2Cc2ccc(F)cc2)C1` [Example 124, methyl (1-{[5-(4-fluorobenzyl)-3-pyridin-4-yl-1H-pyrazol-1-yl]acetyl}azetidin-3-yl)carbamate], for which the figures for the Ki in experiment [1] and in experiment [2] were 0.0147 µM and 0.123 µM, respectively. The IC50 on CYP3A4 [3] worked out at 0.025 µM; at CYP3A4 [4], 0.032 µM.

For the compound `CS(=O)(=O)NC1CN(C(=O)Cn2nc(-c3ccncc3)cc2Cc2ccc(F)cc2)C1` [Example 125, N-(1-{2-[5-(4-fluorobenzyl)-3-pyridin-4-yl-1H-pyrazol-1-yl]acetyl}azetidin-3-yl)methanesulfonamide], the Ki in experiment [1] came to 0.00884 µM; in experiment [2], 0.0666 µM. Besides, the results for the IC50 on CYP3A4 [3] and at CYP3A4 [4] were 0.022 µM and 0.027 µM, respectively.

As to `CNC(=O)NC1CN(C(=O)Cn2nc(-c3ccncc3)cc2Cc2ccc(F)cc2)C1` [Example 126, 1-(1-{[5-(4-fluorobenzyl)-3-pyridin-4-yl-1H-pyrazol-1-yl]acetyl}azetidin-3-yl)-3-methylurea], the figures for the Ki in experiment [1] and in experiment [2] were 0.031 µM and 0.196 µM, respectively. The figures for the IC50 on CYP3A4 [3] and at CYP3A4 [4] were 0.034 µM and 0.059 µM, respectively.

As for `CC(=O)NC1CN(C(=O)Cn2nc(-c3ccncc3)cc2Cc2ccc(F)cc2)C1` [Example 127, N-(1-{2-[5-(4-fluorobenzyl)-3-pyridin-4-yl-1H-pyrazol-1-yl]acetyl}azetidin-3-yl)acetamide], the values for the Ki in experiment [1] and in experiment [2] were 0.0191 µM and 0.141 µM, respectively. Also, the figures for the IC50 on CYP3A4 [3] and on CYP3A4 [4] were 0.041 µM and 0.08 µM, respectively.

(Values after patent publication US7919488B2, “Therapeutic compounds” (Pfizer Inc., priority 2006, dated 2011).)
